For orientation: EC50 means the concentration that produces a half-maximal response.

Type in all cases: cell-based
Data set [1] has as its system aptazyme-based riboswitches (AC17-4). The data set is described as follows: cells. The note with it: Homo sapiens, 48 h; ligand as low as 5 μM in culture medium, HEK293 cells; read-out: activation of gene expression. The method, then:
HEK293 cells were cultured in Dulbecco's modified Eagle's medium (DMEM) supplemented with 10% heat-inactivated FBS (Gibco) containing 2 mM L-glutamine and 100 units ml^−1 of penicillin-streptomycin (DMEM-FBS). Cells were kept in a 37° C. incubator with 5% CO2 and passaged regularly upon reaching 90% confluency. Approximately 20 h prior to transfection, the cells were trypsinized, diluted to ~2.7×10^5 cells ml^−1 and 100 μl per well were seeded onto a 96-well plate. Cells in each well were cotransfected with 100 ng of the EGFP-aptazyme plasmid and 20 ng of pCMV-mCherry^27 (transfection control) using 0.3 μl of TransIT-293 Transfection Reagent (Mirus) according to the manufacturer's instructions. […] Forty-eight hours after transfection, the medium in each well was replaced with 100 μl of phosphate buffered saline (PBS), and fluorescence intensity was measured by Infinite M1000 PRO microplate reader (Tecan). Fluorescence intensity was measured at 484 nm excitation/510 nm emission/5 nm bandwidth for EGFP, and at 587 nm excitation/610 nm emission/10 nm bandwidth for mCherry. Background fluorescence measured using untransfected cells was subtracted from the EGFP and mCherry fluorescence values. Then, EGFP fluorescence was normalized by mCherry fluorescence to account for variations in transfection efficiency and cell counts. […]

The test system of data set [2] is a8-AC17-4-CPP riboswitch (EGFP expression in HEK293 cells). The data set is described as follows: Riboswitch assay in HEK293 cells, a8-AC17-4-CPP, ligand response. The note with it: for fold induction at 5 µM: 48 h, 5 μM ligand, HEK293 cells, read-out: activation of EGFP / gene expression (ON/OFF). The method, then:
HEK293 cells were cultured in Dulbecco's modified Eagle's medium (DMEM) supplemented with 10% heat-inactivated FBS (Gibco) containing 2 mM L-glutamine and 100 units ml^−1 of penicillin-streptomycin (DMEM-FBS). Cells were kept in a 37° C. incubator with 5% CO2 and passaged regularly upon reaching 90% confluency. Approximately 20 h prior to transfection, the cells were trypsinized, diluted to ~2.7×10^5 cells ml^−1 and 100 μl per well were seeded onto a 96-well plate. Cells in each well were cotransfected with 100 ng of the EGFP-aptazyme plasmid and 20 ng of pCMV-mCherry^27 (transfection control) using 0.3 μl of TransIT-293 Transfection Reagent (Mirus) according to the manufacturer's instructions. Five hours after transfection, the medium in each well was replaced with fresh medium with (up to 5 μM) or without ASP2905 or ASP7967. The aptamer ligands were dissolved at 1000× concentration in DMSO. Forty-eight hours after transfection, the medium in each well was replaced with 100 μl of phosphate buffered saline (PBS), and fluorescence intensity was measured by Infinite M1000 PRO microplate reader (Tecan). Fluorescence intensity was measured at 484 nm excitation/510 nm emission/5 nm bandwidth for EGFP, and at 587 nm excitation/610 nm emission/10 nm bandwidth for mCherry. Background fluorescence measured using untransfected cells was subtracted from the EGFP and mCherry fluorescence values. Then, EGFP fluorescence was normalized by mCherry fluorescence to account for variations in transfection efficiency and cell counts. All reported values are averages of three replicate wells.
The anti-Rz sequence was varied from 6 to 10 nucleotides, and the aptazyme was inserted in the 3′ UTR of the EGFP transcript.
The EGFP-riboswitch plasmid and an mCherry-expressing plasmid (transfection control) were cotransfected into HEK293 cells in the absence or presence (5 μM) of ASP2905 or ASP7967. EGFP and mCherry fluorescence was measured two days after transfection, and EGFP fluorescence was normalized by mCherry fluorescence to account for variability in transfection efficiency. […] We attribute this to the coincidental complementarity of the nucleotides preceding anti-Rz (CA) to the ribozyme sequence, making the effective anti-Rz sequence length longer than intended.
The riboswitch a8-AC17-4-CPP was further analyzed for the dose dependent response to ASP7967 (FIG. 6d).

The subject of the next data set is HEK293 cells. The data set can be described thus: MTT (cell proliferation) assay. The note with it: up to 10 μM, 18 h. The method, then:
MTT assay was performed using MTT Cell Count Kit (Nacalai Tesque). HEK293 cells were trypsinized, diluted to 2.4×10^5 cells ml^−1 and 100 μl per well were seeded onto a 96-well plate. The cells were cultured for 24 h at 37° C. under 5% CO2. The medium was replaced with fresh medium (DMEM-FBS with 0.1% (v/v) DMSO) with 0, 2, 5, or 10 μM of ASP2905 or ASP7967. The cells were cultured for additional 18 h at 37° C. under 5% CO2. Subsequently, 10 μl of MTT solution was added to each well, and the cells were incubated for 3 h at 37° C. under 5% CO2. Next, 100 μl of the Solubilization Solution was added to each well. To dissolve the precipitated formazan, the plate was incubated for 2 h at 37° C. Absorbance at 570 nm (reference wavelength: 700 nm) was measured by Infinite M1000 PRO microplate reader (Tecan). The reported values are averages of four replicate wells. The assay was repeated three times to ensure reproducibility.

Entries after “also recorded” stand apart in the source; their conditions may differ.

As to `Fc1ccc(Nc2nc(NCc3ncccn3)nc(Nc3ccccc3)n2)cc1` [ASP2905, reference compound], the fold induction at 5 µM in data set [1] was over 10; in data set [2] (Homo sapiens), about 10. The “effect on cell proliferation / cellular toxicity” value in the data set on HEK293 cells was “not significantly affected”; in the data set on HEK293 cells (listed as ASP2095), “No cellular toxicity up to 10 μM was observed; also recorded: not cytotoxic”.

In the case of `Fc1ccc(Nc2nc(NCc3ncccn3)nc(Nc3ccc(F)cc3)n2)cc1` [ASP7967], the fold induction at 5 µM in data set [1] is over 10; in data set [2] (Homo sapiens), about 10. The “ASP7967 concentration at which riboswitch response mostly saturated” value in data set [2] turned out to be 5 µM. In data set [2] (Homo sapiens, HEK293, dose dependent response), this compound returned an EC50 of about 1100 nM. Moreover, the “effect on cell proliferation / cellular toxicity” value in the data set with HEK293 cells was “not significantly affected; also recorded: No cellular toxicity up to 10 μM was observed; also recorded: not cytotoxic”.

The values are drawn from patent US20260327628A1, “AN RNA APTAMER THAT BINDS TO ASP7967 OR AN ANALOGUE THEREOF” (priority 2022, published 2026).
